These results are taken from patent US20230139826A1 (NONO INC., priority 2020, published 2023).

“Also recorded” adds a separate entry of the source. Read-outs that look alike come from different tables or passages of the source. Non-standard residues stand in square brackets, D forms with d. Residues, ends and D or L forms follow the SMILES beside them.

One series deals with plasmin (Homo sapiens, UniProt P00747). On the procedure: (A) LC/MS spectrum of nerinetide after incubation with plasmin in PBS. 10 uL aliquots of nerinetide (18 mg/mL) and plasmin (1 mg/mL) were incubated in 500 uL tubes of phosphate-buffered saline at 37 C for 5 min and the reaction stopped by cooling to −80 C until tested. […] (B, C) In-vitro effect of rt-PA on nerinetide content in rat (B) and human (C) plasma. Nerinetide was spiked into the plasma samples at t=0 at a concentration of 65 ug/ml, whereas alteplase (rt-PA) was administered as a 60 min infusion at the indicated concentration (D, E) In-vivo effect of the simultaneous administration of nerinetide and rt-PA on Cmax (D) and AUC (E) in the rat. The nerinetide bolus and alteplase (60 min infusion) were started simultaneously through two separate intravenous lines. Symbols represent mean±SD. […] […] (SEQ ID NO:3) (Full-length NA-1, undigested), […] […] (SEQ ID NO:8), […] […] (SEQ ID NO:10).
Direct ELISA of the indicated biotinylated peptides to the PDZ2 domain of PSD-95. […] Symbols indicate the mean±SD of triplicate experiments. […] (B). […] E,F. Time course of nerinetide or D-TAT-L-2B9c content in rat plasma (E) and human plasma (F) during a challenge with tenecteplase (TNK; 37.5 ug/ml or 6.25 ug/ml, respectively). […] (repeated measures two-way ANOVA with a post hoc Sidak's multiple comparisons test, *P<0.01). Symbols are means±SD. […]

The subject of series [1] is embolic middle cerebral artery occlusion (eMCAO). The series can be described thus: Rat embolic middle cerebral artery occlusion model with alteplase reperfusion. Format: in vivo, Sprague-Dawley rats. On the procedure:
To test this, male Sprague-Dawley rats (10-12 weeks old; 270-310 g; Charles River, Montreal, QC, Canada) were subjected to embolic middle cerebral artery occlusion (eMCAO), produced by the introduction of an autologous blood thrombus into the middle cerebral artery. Reperfusion was achieved by treatment with intravenous alteplase at a total dose of 5.4 mg/kg beginning at 90 minutes after ischemia onset. Alteplase was administered using the human injection protocol in which 10% of the total dose is given as a bolus, with the remainder 90% of the dose being given over a 60-minute infusion. […] This dose was chosen because in pilot studies, higher doses of alteplase (10× human dose) produced unacceptable mortality rates due to hemorrhagic conversions of strokes. Nerinetide was administered either 30 minutes prior to, or concurrently with, the start of the alteplase administration (FIG. 5A) at a dose of 7.6 mg/kg. […] Infarct volumes, hemispheric swelling and neurological scores were evaluated at 24 hours.
Male Sprague-Dawley rats were subjected to eMCAO as already described. Nerinetide (7.6 mg/kg) or D-Tat-L-2B9c (7.6 mg/kg) were given as bolus injections at 60 minutes. Alteplase (5.4 mg/kg over 60 min) was also started at 60 min after eMCAO, concurrently with the active agent that inhibits PSD-95. Neurological scoring, infarct volume, and hemispheric swelling were assessed at 24 hours (FIG. 8A).
The studies were designed to have 80% power to detect a 40% absolute difference between control and treatment groups at p=0.05. Animal randomization, drug allocation and treatment drug preparation were performed by a research associate not directly involved with surgical or outcome assessment. Nerinetide and D-Tat-L-2B9c were freshly prepared at a concentration of 7.6 mg/mL in 500 uL aliquots. Alteplase was prepared from lyophilized drug and, like matching placebo, stored in identical glass tubes. Drugs were kept at 4° C. until 10 minutes prior to use. The surgeon and the investigators responsible for the surgery, stroke volume measurement, behavioural assessment and statistical analysis were blinded to treatment allocation.

Series [2] deals with transient middle cerebral artery occlusion (tMCAO). The series can be described thus: Rat transient middle cerebral artery occlusion model. Conditions: rat tMCAO, comparison of the two peptides.
Method: Nerinetide and lodoxamide was administered to rats intravenously as a bolus injection, 60 minutes after tMCAo. […] Bars in A and represent mean±SD, with all individual data points plotted. Asterisks in A indicate P<0.01 when compared to the vehicle group (one-way ANOVA post hoc Tukey's correction for multiple comparisons test) N=12-14 animals/group. […] Significant differences are indicated with an asterisk when compared to the vehicle group (Kruskal-Wallis analysis of variance on ranks with a post-hoc Dunn's correction for multiple comparisons test, *P<0.01). Vehicle: PBS alone. Scrambled: ADA peptide incapable of binding PSD-95.
All animals subjected to surgery had their physiological parameters measured prior to MCA occlusion. PE-50 polyethylene tubing was inserted into the right femoral artery for invasive monitoring of mean arterial blood pressure and for obtaining blood samples to measure blood gases (pH, PaO2, and PaCO2), electrolytes (Na^+, K^+, iCa) and plasma glucose at baseline [Blood gas cartridge CG8+, VetScan i-STAT 1 Analyzer].
Infarct volumes and hemispheric swelling were evaluated at 24 hours post-stroke from standard brain slices stained with 2% 2,3,5-triphenyltetrazolium chloride (Sigma Aldrich, St. Louis, Md., USA)(7). Neurologic scoring was conducted at 24 hours after stroke onset using forelimb-placing tests comprising of frontal visual placing, sideways visual placing, frontal tactile placing, sideways tactile placing, and vertical tactile placing (scores range from 0-2 in each component for a maximum of 12 indicating maximum impairment.
For the next series, the target named is PDZ2 domain of PSD-95 (Homo sapiens, UniProt P78352). The series can be described thus: Direct ELISA of biotinylated peptides to PSD-95 PDZ2. The series is classed as binding. On the procedure: ELISA plates were coated with 1 ug/ml PSD95PDZ2 in 50 mM bicarbonate buffer overnight at 4 C. The plate was blocked in 2%BSA in PBST (0.05%) for 2 h at room temperature. It was then incubated with biotinylated ligand (nerinetide, D-tat-L2B9c or D-Tat-L-AA) at the indicated concentrations (FIG. 4A) and incubated overnight at 4 C. After washing with PBS-T, the plate was incubated for 30 min with (1:3000) SA-HRP, washed again, and incubated with TMB solution for 10 min. The reaction was stopped with 100 ul H2504. Absorbance was determined at 450 nm with the synergy H1 reader.
Sequence of PDZ2 domain of PSD-95 (P78352 160-246 limits assumed): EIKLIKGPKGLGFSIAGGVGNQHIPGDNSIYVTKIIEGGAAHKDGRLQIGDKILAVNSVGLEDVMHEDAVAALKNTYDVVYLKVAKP
Background: An ELISA detects its analyte on a solid surface through an enzyme-linked reagent.

A short description of series [3]: In-vivo pharmacokinetic analysis in rats. Conditions: rat, intravenous bolus 7.6 mg/kg. The protocol:
Since the effect of nerinetide in the ESCAPE-NA1 trial was negated by alteplase, we next evaluated the effects of alteplase on pharmacokinetics (PK) of nerinetide in rats. Alteplase was administered at 0.9 mg/kg (human dose) and at 5.4 mg/kg (6 times the human dose) in an infusion that simulated the clinical protocol (10% bolus followed by a 60 min infusion of the remainder). Nerinetide was administered as an intravenous bolus at the start of the alteplase infusion at 7.6 mg/kg.
The goal of these study was to evaluate nerinetide PK parameter changes when in the presence of circulating rt-PA and plasmin. Male naïve rats received an intravenous administration of either nerinetide alone, nerinetide plus rt-PA (0.9 mg/kg) or nerinetide plus rt-PA (5.4 mg/kg). Sample collection was performed pre-dose and 0 min, 5 min, 10 min, 20 min, 50 min post-dose. At each time point, approximately 300 uL of blood was sampled from each animal using a fresh syringe. Blood samples were collected in previously prepared Eppendorf tubes [30 ul of EDTA 2.5%] and centrifuged for 20 minutes to separate plasma and cell components.
Plasma samples were stored at −80° C. until analyzed.
Changes in peptide concentration were analyzed using a two-way repeated measures ANOVA, followed by the Sidak correction for multiple comparisons. The pharmacokinetic (PK) parameters of peak plasma concentration (Cmax) and the area under the plasma concentration-time curve from 0 to last measured concentration (AUC) were obtained with PKsolver Software (USA) using a non-compartmental analysis and employing a linear interpolation. For stroke studies, differences between groups were tested using a One-way ANOVA with a Tukey's correction for multiple comparisons. […] Values for animals experiencing premature death due to any reason including subarachnoid hemorrhage or hemorrhagic transformation were imputed to reflect the worst neurological score and the maximum stroke volume achieved across all animals.

The conditions of series [4]: cited from earlier work.
A short description of series [5]: human plasma in the absence of alteplase. Conditions: 37° C., up to 45 min.
The subject of a further series is plasmin (1 mg/mL). The series can be described thus: plasmin in PBS (phosphate-buffered saline). To be noted: 37 C, up to 5 min.
Series [6] concerns rt-PA (alteplase) (135 ug/ml). In words: PBS during a challenge with rt-PA (135 ug/ml). To be noted: 37° C.
Series [7] in a line: rat plasma in the absence of alteplase. To be noted: Rat Sprague Dawley, 37° C., up to 45 min.

The EC50 is the concentration needed to bring the measured effect to its halfway point. For the molecule `CC[C@H](C)[C@H](NC(=O)[C@H](CO)NC(=O)[C@H](CO)NC(=O)[C@H](CC(C)C)NC(=O)[C@H](CCCCN)NC(=O)[C@@H](CCCNC(=N)N)NC(=O)[C@@H](CCCNC(=N)N)NC(=O)[C@@H](CCCNC(=N)N)NC(=O)[C@@H](CCC(N)=O)NC(=O)[C@@H](CCCNC(=N)N)NC(=O)[C@@H](CCCNC(=N)N)NC(=O)[C@@H](CCCCN)NC(=O)[C@@H](CCCCN)NC(=O)[C@@H](CCCNC(=N)N)NC(=O)CNC(=O)[C@H](N)Cc1ccc(O)cc1)C(=O)N[C@@H](CCC(=O)O)C(=O)N[C@@H](CO)C(=O)N[C@@H](CC(=O)O)C(=O)N[C@H](C(=O)O)C(C)C` [D-Tat-L-2B9c, ygrkkrrqrrrKLSSIESDV SEQ ID NO:89] (H-[dY]G[dR][dK][dK][dR][dR][dQ][dR][dR][dR]KLSSIESDV-OH; C-terminus assumed), the “stability alone in phosphate buffered saline” value at plasmin was “stable”. Moreover, in [1] (7.6 mg/kg at 60 minutes after eMCAO, 24 hours), the “infarct volumes, hemispheric swelling and neurological scores” value was “beneficial effect of D-Tat-L-2B9c was evident”. The “effect on infarction volume in the absence of alteplase” value in series [1] (7.6 mg/kg bolus at 60 minutes after eMCAO) is on record as “as effective as nerinetide alone”. In addition, the “effect on infarction volume when given concurrently with alteplase” value in series [1] (peptide 7.6 mg/kg and alteplase 5.4 mg/kg both at 60 min after eMCAO) was “this effect persisted”. Besides, the “reducing infarction volume, hemispheric swelling and improving neurological scores” value in series [2] is “equally effective”. Further, at PDZ2 domain of PSD-95, the EC50 is 151 nM and the “binding to PDZ2 domain of PSD95 in ELISA” value is “substantially similar binding as nerinetide”. For the same molecule, the “pharmacokinetic profile compared with nerinetide” value in [3] was “higher cmax and AUC”.
For “alteplase: a recombinant form of tPA; thrombolytic agent [reference compound]”, the “half-life in human plasma” value in series [4] (in vivo) is listed as “about five”. Besides, the “reduction of infarction volume” value in series [1] (alteplase alone 5.4 mg/kg given at 60 min after eMCAO) is 26%; in [1] (alteplase alone 5.4 mg/kg given at 90 minutes after eMCAO), 18%.
Turning to YGRKKRRQRRRKLSSIESDV, the not cleaved result in series [5] is reported as “stable”; in series [6], “not affected by co-incubation with alteplase”; in series [7], “stable”. Moreover, in the series on plasmin (1 mg/mL), the cleaved bond result was “K5-R, 5 min; also recorded: R6-R, 5 min; also recorded: R7-Q, 5 min; also recorded: R9-R, 5 min; also recorded: R11-K, 5 min; also recorded: K12-L, 5 min”. The fragment found entry in the series with plasmin (1 mg/mL) was “RKLSSIESDV (SEQ ID NO:8), 5 min”.

B1: Plasmin: serine protease generated from circulating plasminogen by tissue-plasminogen activators (protein, UniProt P00747 20-580; P00747 581-810, looked up)
Plasmin heavy chain A: EPLDDYVNTQGASLFSVTKKQLGAGSIEECAAKCEEDEEFTCRAFQYHSKEQQCVIMAENRKSSIIIRMRDVVLFEKKVYLSECKTGNGKNYRGTMSKTKNGITCQKWSSTSPHRPRFSPATHPSEGLEENYCRNPDNDPQGPWCYTTDPEKRYDYCDILECEEECMHCSGENYDGKISKTMSGLECQAWDSQSPHAHGYIPSKFPNKNLKKNYCRNPDRELRPWCFTTDPNKRWELCDIPRCTTPPPSSGPTYQCLKGTGENYRGNVAVTVSGHTCQHWSAQTPHTHNRTPENFPCKNLDENYCRNPDGKRAPWCHTTNSQVRWEYCKIPSCDSSPVSTEQLAPTAPPELTPVVQDCYHGDGQSYRGTSSTTTTGKKCQSWSSMTPHRHQKTPENYPNAGLTMNYCRNPDADKGPWCFTTDPSVRWEYCNLKKCSGTEASVVAPPPVVLLPDVETPSEEDCMFGNGKGYRGKRATTVTGTPCQDWAAQEPHRHSIFTPETNPRAGLEKNYCRNPDGDVGGPWCYTTNPRKLYDYCDVPQCAAPSFDCGKPQVEPKKCPGR
Plasmin light chain B: VVGGCVAHPHSWPWQVSLRTRFGMHFCGGTLISPEWVLTAAHCLEKSPRPSSYKVILGAHQEVNLEPHVQEIEVSRLFLEPTRKDIALLKLSSPAVITDKVIPACLPSPNYVVADRTECFITGWGETQGTFGAGLLKEAQLPVIENKVCNRYEFLNGRVQSTELCAGHLAGGTDSCQGDSGGPLVCFEKDKYILQGVTSWGLGCARPNKPGVYVRVSRFVTWIEGVMRNN
modifications: plasmin
On to B1, for which the “half-life in human plasma” value in [4] (reported) was 4 to 8 h.
